Data as given in patent US8476270B2, “Dihydropyrido[4,3-b]pyrazine-3-ones as modulators of toll-like receptors” (Gilead Sciences, Inc., priority 2009, dated 2013).

test system: human Peripheral Blood Mononuclear Cell (PMBC); assay: PBMC assay: cytokine (IFN-alpha) stimulation at 24 hours; format: cell-based; settings: 24 hours incubation, IFN-alpha in supernatant (Luminex)
Procedure: PBMC Assay Protocol Assays were conducted to determine cytokine stimulation at 24 hours from human Peripheral Blood Mononuclear Cell (PMBC) using the compounds of the present invention. The assays were run in duplicate, with 8-point, half-log dilution curves. The compounds of the present invention were diluted from 10 mM DMSO solution. Cell supernatants are assayed directly for IFNa and 1:10 dilution for TNFa. The assays were performed in a similar fashion as described in Bioorg. Med. Chem. Lett. 16, 4559, (2006). Specifically, cryo-preserved PBMCs were thawed and seeded 96 well plates with 750,000 cells/well in 190 μL/well cell media. The PBMCs were then incubated for 1 hour at 37° C. at 5% CO2. Then, the compounds of the present invention were added in 10 μL cell media at 8 point, half-log dilution titration. The plates were incubated at 37° C. and 5% CO2 for 24 hours and then spinned at 1200 rpm for 10 min, which was followed by collecting supernatant and storing the same at −80° C. Cytokine secretion was assayed with Luminex and Upstate multi-plex kits, using a Luminex analysis instrument. IFN ECmax value for a compound was the concentration at which the compound stimulated maximum IFN-a production as determined using the assay method above.

Row | Compound | MEC = minimum concentration for induction of IFN-alpha = 3-fold over background
1 | CCCCOc1cc2c([nH]c(=O)c(=O)n2Cc2ccc(CN3CCCC3)cc2)c(N)n1 [E] | b (b: 1 nM-9 nM)
2 | COCCOc1nc(N)c2c(c1Cl)N(Cc1ccc(CN3CCCC3)cc1)CC(=O)N2 [D] | e (e: = 1000 nM)
3 | COCCOc1cc2c(c(N)n1)NC(=O)CN2Cc1ccc(CN2CCCC2)cc1 [C] | a (a: = 1 nM)
4 | CCCCOc1cc2c(c(N)n1)NC(=O)CN2Cc1cccc(CN2CCCC2)c1 [A] | d (d: 100 nM-1000 nM)
5 | CCCCOc1cc2c(c(N)n1)NC(=O)CN2Cc1ccc(CN2CCCC2)cc1 [B] | c (c: 10 nM-99 nM)
6 | CCCCOc1cc2c([nH]c(=O)c(=O)n2Cc2ccc(-c3cccc(CN4CCCC4)c3)cc2)c(N)n1 [F] | c (c: 10 nM-99 nM)
7 | CCCCOc1cc2c([nH]c(=O)c(=O)n2Cc2ccc(-c3ccc(CN4CCCC4)cc3)cc2)c(N)n1 [G] | c (c: 10 nM-99 nM)
